In paper PMC5247677 (Scientific Reports, 2017):
Read-outs that look alike come from different tables or passages of the source.

Columns and labels:
[1] = system: formalin-induced pain in mice; assay: Formalin-induced spontaneous pain behaviours; type: in vivo, mouse (C57BL/6 J)
Protocol: (§1) For behavioural assessment we used adult male C57BL/6 J mice or Sprague Dawley rats aged 5–8 weeks. Animals were housed in groups of 2–4 per cage, under 12 h light-dark cycles with standard rodent chow and water ad libitum. All assessments were performed by a blinded investigator unaware of the treatment each animal received. Ethical approval for in vivo experiments in animals was obtained from the University of Queensland, University of Sydney or United Kingdom Home Office animal ethics committee. Experiments involving animals were conducted in accordance with the International Association for the Study of Pain Guidelines for the Use of Animals in Research and the Australian Code of Practice for the Care and Use of Animals for Scientific Purposes, 8th edition (2013).
Formalin (1% v/v) was administered by i.pl injection in mice as previously described. […] Spontaneous pain behaviours were counted from video recordings. Phase I was defined as 0–10 min and Phase II defined as 10–55 min following formalin injection.

[2] = system: carrageenan-induced mechanical allodynia in mice; assay: Carrageenan-induced mechanical allodynia (electronic von Frey); type: in vivo, mouse (C57BL/6 J)
Protocol: as §1
(§2) Carrageenan (1% w/v) was administered by i.pl injection in mice as previously described. Behavioural assessment was performed 3 h post-injection. […] Mechanical thresholds were determined using electronic von Frey (MouseMet Electronic von Frey, TopCat Metrology, UK) as previously described. Thermal thresholds were determined using the thermal probe test (MouseMet Thermal, TopCat Metrology) as described.

NaV1.7 [3] = settings: cited from earlier work
Description: In general, spider venom-derived peptides bind to the voltage-sensing domains of NaV channels to modify gating associated with channel activation and inactivation.

NaV isoforms = settings: up to 2 μM; cited from earlier work
[4] = system: acute heat responses in mice; type: in vivo, mouse (C57BL/6 J); settings: n = 6
Protocol: Paw-withdrawal latency in mice pre-administered phlotoxin 1 (i.p. 50 μg/kg; Venomtech, Valbonne, France), thiorphan (i.p. 20 mg/kg), buprenorphine (i.p. 50 μg/kg), or combinations, was determined using the Hargreaves apparatus (Plantar Analgesia Meter, IITC, CA, USA), with three withdrawal responses measured per animal.

[5] = system: mice and human lacking functional NaV1.7; settings: in vivo; cited from earlier work
[6] = system: carrageenan-induced thermal allodynia in mice; assay: Carrageenan-induced thermal allodynia (thermal probe test); type: in vivo, mouse (C57BL/6 J); settings: P > 0.05
Protocol: as §1, §2

[7] = system: noxious heat response in mice; assay: Hot plate test (50 °C), noxious heat; type: in vivo, mouse (C57BL/6 J); settings: 30 mg/kg i.p., control 25.9 ± 1.8 s, P > 0.05, n = 6–16
[8] = cited from earlier work
Description: (§3) However, while NaV1.7 is expressed on axons, it is unlikely to have a major role in action potential propagation, given it has slow recovery from fast inactiv ...

rat NaV1.7 channel = settings: cited from earlier work
NaV1.7 [9] = settings: 30 mg/kg; cited from earlier work
[10] = system: inflammatory pain in rodents; settings: rodent model of inflammatory pain; cited from earlier work
Description: as §3

COc1ccc2c3c1O[C@H]1C(=O)CC[C@@]4(O)[C@@H](C2)N(C)CC[C@]314 [oxycodone]
pain behaviours, formalin Phase II ([1]; oxycodone 1 mg/kg i.p., control 227 ± 14, n = 7–11): 231 ± 22
paw withdrawal force (PWF) ([2]; oxycodone 0.67 mg/kg i.p., control 1.2 ± 0.2 g, n = 4–12): 1.8 ± 0.2 g

phlotoxin 1: previously characterized spider peptide NaV1.7 inhibitor
IC50 (NaV1.7 [3]): 260 nM
effect on other NaV isoforms (NaV isoforms): no effect on other NaV isoforms
time to withdrawal, acute heat ([4]; phlotoxin 1 50 μg/kg i.p., buprenorphine experiment, control 6.3 ± 0.5 s): 5.8 ± 0.7 s
time to withdrawal, acute heat ([4]; phlotoxin 1 50 μg/kg i.p., thiorphan experiment, control 5.7 ± 0.9 s): 7.3 ± 0.9 s

C=CCN1CC[C@]23c4c5ccc(O)c4O[C@H]2C(=O)CC[C@@]3(O)[C@H]1C5 [naloxone]
reversal of analgesia [5]: substantially reverses analgesia

Nc1[nH]ncc1-c1cc(Cl)ccc1Oc1cc(F)c(S(=O)(=O)Nc2cscn2)cc1Cl [PF-05089771]
state preference at NaV1.7 (NaV1.7 [3]): preferentially bind to the slow inactivated state

NCC1(CC(=O)O)CCCCC1 [gabapentin]
paw withdrawal temperature (PWT) ([6]; gabapentin 100 mg/kg i.p., control 44.5 ± 0.9 °C, n = 3–8): 45.4 ± 0.5 °C
paw withdrawal force (PWF) ([2]; gabapentin 100 mg/kg i.p., control 1.1 ± 0.3 g, P > 0.05, n = 3–8): 1.1 ± 0.1 g

Cn1nccc1-c1ccccc1Oc1ccc(S(=O)(=O)Nc2nccs2)cc1C#N [PF-04856264]
state preference at NaV1.7 (NaV1.7 [3]): preferentially bind to the slow inactivated state
time to withdrawal, hot plate [7]: 30.7 ± 3.8 s
paw withdrawal temperature (PWT) ([6]; PF-04856264 30 mg/kg i.p., control 44.1 ± 0.5 °C, n = 4–12): 44.4 ± 1.2 °C
blood-brain barrier penetration ([8]; expectation): unlikely to cross the blood-brain barrier
formalin Phase I and Phase II pain behaviours ([1]; 30 mg/kg i.p., formalin 1% i.pl., P > 0.05, two-way ANOVA, n = 4–15): neither Pn3a (3 mg/kg i.p.) (Fig. 7d) or PF-04856264 (30 mg/kg ip.) (Figure 7e) significantly reduced Phase I or Phase II pain behaviours
paw withdrawal force (PWF) ([2]; PF-04856264 30 mg/kg i.p., control 1.2 ± 0.2 g, P > 0.05, n = 4–12): 1.5 ± 0.3 g
potency at the rat NaV1.7 channel (rat NaV1.7 channel): low potency at the rat NaV1.7 channel
efficacy in the OD1 model (NaV1.7 [9]): efficacy in the OD1 model at a dose of 30 mg/kg was previously reported

O=C(O)CNC(=O)C(CS)Cc1ccccc1 (centres unmarked) [thiorphan]
time to withdrawal, acute heat ([4]; thiorphan 20 mg/kg i.p., control 5.7 ± 0.9 s): 5.0 ± 0.4 s

ProTx-II: NaV1.7 selective spider peptide from the venom of Thrixopelma pruriens
onset of effect at NaV1.7 (NaV1.7 [3]): slow onset of effect
analgesic activity [10]: lack analgesic activity
plasma levels ([8]; rodent): plasma levels sufficient to inhibit NaV1.7 in vitro

buprenorphine
time to withdrawal, acute heat ([4]; buprenorphine 50 μg/kg i.p., control 6.3 ± 0.5 s): 7.2 ± 0.5 s
